Measurements published in patent US20240174618A1, “SUBSTITUTED (2-HETEROARYLOXYPHENYL)SULFONATES, SALTS THEREOF AND THEIR USE AS HERBICIDAL AGENTS” (Bayer Aktiengesellschaft, priority 2021, published 2024).

Legend:
Assay type in all cases: in vivo
Poa annua (POAAN) [1] = assay: A. Herbicidal pre-emergence efficacy, POAAN
Procedure, shortened: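 Applied before emergence onto covering soil at rates of 1280 g/ha or less, using 600 L/ha spray water with 0.5% additive. Scoring: visual % efficacy after ~3 weeks, greenhouse.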

[2] = system: Digitaria sanguinalis (DIGSA); assay: B. Herbicidal post-emergence efficacy, DIGSA; settings: rated visually after about 3 weeks
Procedure, shortened: (§1)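 Weeds grown in sandy loam in greenhouse pots, sprayed at one-leaf stage (2–3 weeks after sowing) with WP or EC formulations as aqueous suspension/emulsion plus 0.5% additive at 600 L/ha water, rates up to 1280 g/ha. Visual efficacy rated about 3 weeks later versus untreated controls (0% = like control, 100% = dead).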

[3] = system: Echinochloa crus-galli (ECHCG); assay: B. Herbicidal post-emergence efficacy, ECHCG; settings: rated visually after about 3 weeks
Procedure, shortened: as §1

Poa annua (POAAN) [4] = assay: B. Herbicidal post-emergence efficacy, POAAN
Procedure, shortened: as §1

[5] = system: Abutilon theophrasti (ABUTH); assay: C. Herbicidal pre-emergence efficacy, ABUTH; settings: scored after about 3 weeks
Procedure, shortened: (§2)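 Pre-emergence test: formulated compounds sprayed as aqueous suspension or emulsion with 0.5% additive at 600 l/ha onto soil covering sown seeds, at rates corresponding to 320 g/ha or less. After about 3 weeks in greenhouse, efficacy scored visually as percent versus untreated controls (100% = plants dead).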

Viola tricolor (VIOTR) = assay: C. Herbicidal pre-emergence efficacy, VIOTR
Procedure, shortened: as §2

[6] = system: Pharbitis purpurea (PHBPU); assay: E. Herbicidal post-emergence efficacy, PHBPU
Procedure, shortened: (§3)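 Visual scoring against untreated plants was done roughly 3 weeks after spraying (0% = no effect, 100% = plants dead). Spray application at 320 g/ha or lower, 600 l/ha water with 0.5% additive, was made onto green parts of one-leaf-stage greenhouse plants grown 2-3 weeks in sandy loam.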

Setaria viridis (SETVI) = assay: E. Herbicidal post-emergence efficacy, SETVI
Procedure, shortened: as §3

Compound | Pre-emergence efficacy against POAAN (Poa annua (POAAN) [1]; dosage 80 g/ha) | Pre-emergence efficacy against POAAN (Poa annua (POAAN) [1]; dosage 320 g/ha) | Pre-emergence efficacy against POAAN (Poa annua (POAAN) [1]; dosage 1280 g/ha) | Post-emergence efficacy against DIGSA in % ([2]; 1280 g/ha) | Post-emergence efficacy against ECHCG in % ([3]; 1280 g/ha) | Post-emergence efficacy against POAAN (Poa annua (POAAN) [4]; 80 g/ha) | Post-emergence efficacy against POAAN (Poa annua (POAAN) [4]; 320 g/ha) | Post-emergence efficacy against POAAN (Poa annua (POAAN) [4]; 1280 g/ha) | Pre-emergence efficacy against ABUTH ([5]; 320 g/ha) | Pre-emergence efficacy against VIOTR in % (Viola tricolor (VIOTR); application rate 320 g/ha) | Post-emergence efficacy against PHBPU in % ([6]; application rate 80 g/ha) | Post-emergence efficacy against PHBPU in % ([6]; application rate 320 g/ha) | Post-emergence efficacy against SETVI in % (Setaria viridis (SETVI); application rate 320 g/ha) | Post-emergence efficacy against DIGSA in % ([2]; 320 g/ha) | Post-emergence efficacy against ECHCG in % ([3]; 80 g/ha) | Post-emergence efficacy against ECHCG in % ([3]; 320 g/ha) | Pre-emergence efficacy against ABUTH ([5]; 80 g/ha) | Pre-emergence efficacy against VIOTR in % (Viola tricolor (VIOTR); application rate 80 g/ha) | Post-emergence efficacy against SETVI in % (Setaria viridis (SETVI); application rate 80 g/ha)
C=CCCS(=O)(=O)Oc1c(F)cccc1Oc1ncc(Cl)cn1 [Example I-50] | 90% | 90% | 100% | 90% | 90% | 90% | 90% | 90% | 100% | 90% | 90% | 90% | 90% |  |  |  |  |  | 
O=S(=O)(CC1CC(F)(F)C1)Oc1c(F)cccc1Oc1ncc(Cl)cn1 [Example I-53] | 100% | 100% | 100% | 90% | 90% | 90% | 90% | 90% | 100% | 100% | 100% | 100% | 100% | 90% | 90% | 90% | 100% | 100% | 100%
O=S(=O)(CCCC(F)F)Oc1c(F)cccc1Oc1ncc(Cl)cn1 [Example I-56] | 90% | 100% | 100% | 90% | 90% | 90% | 90% | 90% | 100% | 100% | 100% | 100% | 100% | 90% |  | 90% | 100% | 100% | 80%
O=S(=O)(CCCC(F)(F)C(F)(F)F)Oc1c(F)cccc1Oc1ncc(Cl)cn1 [Example I-68] |  | 90% | 100% | 100% | 100% |  | 90% | 100% | 100% | 100% | 80% | 90% | 100% | 90% |  | 90% | 100% | 100% | 100%
Cc1cccc(Oc2ncc(Cl)cn2)c1OS(=O)(=O)CC1CC(F)(F)C1 [Example I-74] |  | 100% | 100% | 100% | 100% | 90% | 100% | 100% | 90% | 100% |  | 90% | 90% | 90% |  | 100% |  | 100% | 
